Converted amounts (≈) assume the structure as drawn.
How the values were obtained:
[1] = Metabolic stability in human liver microsomes (HLM); conditions: human
Protocol: Metabolic stability in HLM was measured as described in J Comput Aided Mol Des 2015, 29, 795.

[2] = Metabolic stability in rat hepatocytes (rHep); conditions: n = 1 or geometric mean of n = 2-3
[3] = target: human Fibroblast activation protein alpha (hFAP) (Homo sapiens (Human), UniProt Q12884); test: hFAP inhibition assay (tight binders); format: biochemical; conditions: Ala-Pro-AMC 20 μM, n = 1 or geometric mean n = 2-6; also: hFAP 2.4 pM
Sequence of human Fibroblast activation protein alpha (hFAP) (Q12884 38-760): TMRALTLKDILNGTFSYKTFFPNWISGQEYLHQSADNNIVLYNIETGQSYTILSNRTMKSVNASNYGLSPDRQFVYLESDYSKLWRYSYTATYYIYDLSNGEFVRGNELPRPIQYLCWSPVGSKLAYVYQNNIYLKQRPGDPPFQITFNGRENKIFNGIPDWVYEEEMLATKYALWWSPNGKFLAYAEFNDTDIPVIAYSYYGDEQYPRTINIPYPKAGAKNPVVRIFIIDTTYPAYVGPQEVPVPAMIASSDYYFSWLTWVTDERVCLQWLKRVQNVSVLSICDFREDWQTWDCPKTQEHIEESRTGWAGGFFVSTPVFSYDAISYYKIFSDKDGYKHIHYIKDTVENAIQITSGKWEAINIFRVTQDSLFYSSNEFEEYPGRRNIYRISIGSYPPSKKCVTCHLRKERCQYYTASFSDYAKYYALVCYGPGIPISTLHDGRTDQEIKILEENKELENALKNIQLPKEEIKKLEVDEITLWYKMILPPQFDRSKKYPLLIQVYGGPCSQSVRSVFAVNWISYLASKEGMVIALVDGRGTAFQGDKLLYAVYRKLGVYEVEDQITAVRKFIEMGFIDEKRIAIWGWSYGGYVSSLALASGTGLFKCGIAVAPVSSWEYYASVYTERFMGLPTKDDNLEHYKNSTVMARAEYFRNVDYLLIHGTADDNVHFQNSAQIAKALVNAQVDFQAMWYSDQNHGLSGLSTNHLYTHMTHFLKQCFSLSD
Protocol: The plates were read on a PHERAstar® reader with excitation 340 nm and emission 460 nm. Data were analyzed in Genedata Screener®. IC50 values were determined by plotting % inhibition versus log compound concentration and using a one site dose response model.

hFAP (M39-A757) = hFAP (M39-A757) (Homo sapiens (Human), UniProt Q12884); test: hFAP binding assay (surface plasmon resonance); conditions: SPR, 20° C.; for hFAP Binding assay k(off) / hFAP Binding assay k(on): single cycle kinetics; for Kd: n = 1 or geometric mean n = 2-4
Sequence of hFAP (M39-A757) (Q12884 39-757): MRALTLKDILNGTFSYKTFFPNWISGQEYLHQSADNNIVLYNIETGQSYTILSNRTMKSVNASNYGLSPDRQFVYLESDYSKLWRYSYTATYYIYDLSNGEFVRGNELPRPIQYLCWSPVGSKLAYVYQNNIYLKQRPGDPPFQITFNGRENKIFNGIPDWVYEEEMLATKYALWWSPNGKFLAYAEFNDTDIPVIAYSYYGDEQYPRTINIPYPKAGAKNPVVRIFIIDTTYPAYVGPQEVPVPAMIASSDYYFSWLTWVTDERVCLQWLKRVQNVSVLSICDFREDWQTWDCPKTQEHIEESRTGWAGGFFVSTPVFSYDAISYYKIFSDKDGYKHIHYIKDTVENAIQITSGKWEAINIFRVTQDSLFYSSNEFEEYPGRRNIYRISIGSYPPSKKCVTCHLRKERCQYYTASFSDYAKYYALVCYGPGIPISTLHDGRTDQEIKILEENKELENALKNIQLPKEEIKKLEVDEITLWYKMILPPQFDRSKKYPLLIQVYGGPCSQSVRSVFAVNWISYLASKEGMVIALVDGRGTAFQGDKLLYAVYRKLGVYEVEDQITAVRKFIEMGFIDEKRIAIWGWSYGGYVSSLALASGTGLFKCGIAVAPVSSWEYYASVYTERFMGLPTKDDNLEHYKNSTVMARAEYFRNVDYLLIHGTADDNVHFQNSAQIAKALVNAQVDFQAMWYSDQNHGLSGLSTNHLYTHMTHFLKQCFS

[4] = target: Prolyl endopeptidase, Prolyl Oligopeptidase (hPREP) (Homo sapiens (Human), UniProt P48147); test: hPrep inhibition assay; format: biochemical; conditions: hPREP 0.6 nM, Z-Gly-Pro-amino-methylcoumarin 50 μM; read-out: PREP IC50
Sequence of Prolyl endopeptidase, Prolyl Oligopeptidase (hPREP) (P48147 whole entry): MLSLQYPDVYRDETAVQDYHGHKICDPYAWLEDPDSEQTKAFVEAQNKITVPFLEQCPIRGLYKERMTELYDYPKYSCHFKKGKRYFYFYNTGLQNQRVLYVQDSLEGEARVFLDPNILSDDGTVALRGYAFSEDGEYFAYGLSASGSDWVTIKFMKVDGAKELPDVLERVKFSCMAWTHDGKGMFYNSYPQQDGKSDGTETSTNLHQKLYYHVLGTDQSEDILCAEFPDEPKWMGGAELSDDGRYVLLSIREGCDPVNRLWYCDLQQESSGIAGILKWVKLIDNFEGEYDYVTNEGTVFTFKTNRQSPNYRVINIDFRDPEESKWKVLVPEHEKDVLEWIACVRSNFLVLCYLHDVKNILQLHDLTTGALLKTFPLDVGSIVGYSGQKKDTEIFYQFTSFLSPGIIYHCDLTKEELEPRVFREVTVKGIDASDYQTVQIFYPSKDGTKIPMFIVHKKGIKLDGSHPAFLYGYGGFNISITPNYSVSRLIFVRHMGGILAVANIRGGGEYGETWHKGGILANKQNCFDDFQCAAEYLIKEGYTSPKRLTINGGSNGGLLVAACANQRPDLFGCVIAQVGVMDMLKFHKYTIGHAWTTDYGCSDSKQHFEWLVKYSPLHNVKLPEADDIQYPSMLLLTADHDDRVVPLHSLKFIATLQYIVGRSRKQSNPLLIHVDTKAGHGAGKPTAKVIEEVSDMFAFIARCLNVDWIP
Summary of the method: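 Fluorogenic read-out (340 nm excitation, 460 nm emission) after 20 min at rt, using 50 μM final Z-Gly-Pro-aminomethylcoumarin and 0.6 nM final enzyme, following 15 min compound preincubation. Buffer pH 7.5 with glutathione and Triton X-100. IC50 via one-site model on % inhibition vs log concentration.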

[5] = HLM CLint, n = 1 or average of n = 2-3
[6] = kinetic from dmso stock, Solubility, kinetic solubility, n = 1 or average of n = 2-3

Protocol for Kinetic solubility: Kinetic solubility was measured as described in Comput Aided Mol Des 2015, 29, 795.

SMILES	microsomal CLint [1, 5] [µL/min/mg]	rHep CLint [2] [μL/min/1E6]	IC50 [3] [nM]	hFAP Binding assay k(off) (hFAP (M39-A757)) [s⁻¹]	hFAP Binding assay k(on) (hFAP (M39-A757)) [M⁻¹ s⁻¹]	Kd (hFAP (M39-A757)) [nM]	IC50 [4] [nM]	solubility (Kinetic solubility; [6]) [µM]	microsomal CLint [1] [µL/min/mg]	solubility (Kinetic solubility; kinetic from dmso stock) [µM]	solubility (Kinetic solubility; kinetic solubility, n = 1 or average of n = 2-3) [µM]
CCC1(C)CN(c2ccc3nccc(C(=O)NCC(=O)N4CSC[C@H]4C#N)c3c2)C1 [Example 137, (R)—N-(2-(4-Cyanothiazolidin-3-yl)-2-oxoethyl)-6-(3-ethyl-3-methyl-azetidin-1-yl)quinoline-4-carboxamide]	70	17	0.11	0.000098	9500000	0.013	340	74 (≈ 31.3 µg/mL)	–	–	–
N#C[C@@H]1CSCN1C(=O)CNC(=O)c1ccnc2ccc(N3CC(CC(F)(F)F)C3)cc12 [Example 158, (R)—N-(2-(4-Cyanothiazolidin-3-yl)-2-oxoethyl)-6-(3-(2,2,2-trifluoroethyl)-azetidin-1-yl)quinoline-4-carboxamide]	17	4.7	0.1	0.00029	3100000	0.1	560	8.9 (≈ 4.13 µg/mL)	–	–	–
N#C[C@@H]1CSCN1C(=O)CNC(=O)c1ccnc2ccc(-n3ccc4cc(F)ccc43)cc12 [Example 120, (R)—N-(2-(4-Cyanothiazolidin-3-yl)-2-oxoethyl)-6-(5-fluoro-1H-indol-1-yl)quinoline-4-carboxamide]	100	27	0.15	–	–	0.13	25	0.92 (≈ 0.423 µg/mL)	–	–	–
N#C[C@@H]1CSCN1C(=O)CNC(=O)c1ccnc2ccc(N3CCC(F)(c4ccccc4)CC3)cc12 [Example 223, (R)—N-(2-(4-Cyanothiazolidin-3-yl)-2-oxoethyl)-6-(4-fluoro-4-phenyl-piperidin-1-yl)quinoline-4-carboxamide]	57	51	0.076	0.000026	2500000	0.01	86	< 1.6	–	–	–
N#C[C@@H]1CSCN1C(=O)CNC(=O)c1ccnc2ccc(N3C[C@@H]4CCC[C@@H]43)cc12 (mixture of isomers) [Example 156, 6-((1RS,5RS)-6-Azabicyclo[3.2.0]heptan-6-yl)-N-(2-((R)-4-cyanothiazolidin-3-yl)-2-oxoethyl)quinoline-4-carboxamide]	140	120	0.22	0.000066	1200000	0.056	310	100	–	–	–
N#C[C@@H]1CSCN1C(=O)CNC(=O)c1ccnc2ccc(-n3ccc(-c4ccccc4)c3)cc12 [Example 218, (R)—N-(2-(4-Cyanothiazolidin-3-yl)-2-oxoethyl)-6-(3-phenyl-1H-pyrrol-1-yl)quinoline-4-carboxamide]	37	18	0.068	0.00032	670000	0.48	390	< 0.16	–	–	–
N#C[C@@H]1CSCN1C(=O)CNC(=O)c1ccnc2ccc(-n3ncc4c3CCCC4)cc12 [Example 114, (R)—N-(2-(4-Cyanothiazolidin-3-yl)-2-oxoethyl)-6-(4,5,6,7-tetrahydro-1H-indazol-1-yl)quinoline-4-carboxamide]	170	36	0.072	–	–	0.062	230	4.5 (≈ 2.01 µg/mL)	–	–	–
N#C[C@@H]1CSCN1C(=O)CNC(=O)c1ccnc2ccc(N3CC4C(C3)C4(F)F)cc12 (stereo partly drawn) [Example 160, N-(2-((R)-4-Cyanothiazolidin-3-yl)-2-oxoethyl)-6-(6,6-difluoro-3-azabicyclo[3.1.0]hexan-3-yl)quinoline-4-carboxamide]	45	33	0.05	0.000074	1100000	0.068	210	1.8 (≈ 0.798 µg/mL)	–	–	–
CC1CC2(C1)CN(c1ccc3nccc(C(=O)NCC(=O)N4CSC[C@H]4C#N)c3c1)C2 [Example 149, (R)—N-(2-(4-Cyanothiazolidin-3-yl)-2-oxoethyl)-6-(6-methyl-2-azaspiro[3.3]heptan-2-yl)quinoline-4-carboxamide]	–	7	0.097	0.000039	4800000	0.0087	470	–	56	130 (≈ 56.6 µg/mL)	–
N#C[C@@H]1CSCN1C(=O)CNC(=O)c1ccnc2ccc(-n3ccc4c(F)cc(F)cc43)cc12 [Example 119, (R)—N-(2-(4-Cyanothiazolidin-3-yl)-2-oxoethyl)-6-(4,6-difluoro-1H-indol-1-yl)quinoline-4-carboxamide]	68	27	0.16	0.00031	610000	0.39	76	1 (≈ 0.477 µg/mL)	–	–	–
N#C[C@@H]1CSCN1C(=O)CNC(=O)c1ccnc2ccc(N3CC(F)(C(F)(F)F)C3)cc12 [Example 143, (R)—N-(2-(4-Cyanothiazolidin-3-yl)-2-oxoethyl)-6-(3-fluoro-3-(trifluoromethyl)azetidin-1-yl)quinoline-4-carboxamide]	40	13	0.069	0.000057	1600000	0.036	460	33 (≈ 15.4 µg/mL)	–	–	–
N#C[C@@H]1CSCN1C(=O)CNC(=O)c1ccnc2cc(Cl)c(N3CCOCC3)cc12 [Example 179, (R)-7-Chloro-N-(2-(4-cyanothiazolidin-3-yl)-2-oxoethyl)-6-morpholino-quinoline-4-carboxamide]	140	47	0.048	0.00016	3200000	0.052	470	110 (≈ 49.1 µg/mL)	–	–	–
CC(C)C1CN(c2ccc3nccc(C(=O)NCC(=O)N4CSC[C@H]4C#N)c3c2)C1 [Example 148, (R)—N-(2-(4-Cyanothiazolidin-3-yl)-2-oxoethyl)-6-(3-isopropylazetidin-1-yl)quinoline-4-carboxamide]	53	12	0.059	0.0002	6600000	0.031	420	3.4 (≈ 1.44 µg/mL)	–	–	–
C[C@@H]1CN(c2ccc3nccc(C(=O)NCC(=O)N4CSC[C@H]4C#N)c3c2)C[C@H]1C (single isomer, unassigned) [Example 225, N-(2-((R)-4-Cyanothiazolidin-3-yl)-2-oxoethyl)-6-((3R*,4R*)-3,4-dimethylpyrrolidin-1-yl)quinoline-4-carboxamide]	110	37	0.11	–	–	0.077	470	–	–	–	2.2 (≈ 0.932 µg/mL)
COC1CN(c2ccc3nccc(C(=O)NCC(=O)N4CSC[C@H]4C#N)c3c2)C1 [Example 66, (R)—N-(2-(4-Cyanothiazolidin-3-yl)-2-oxoethyl)-6-(3-methoxyazetidin-1-yl)quinoline-4-carboxamide]	< 3	<1	0.077	0.00022	26000000	0.035	490	210 (≈ 86.4 µg/mL)	–	–	–
CO[C@@H]1CCN(c2ccc3nccc(C(=O)NCC(=O)N4CSC[C@H]4C#N)c3c2)C1 [Example 161, N-(2-((R)-4-Cyanothiazolidin-3-yl)-2-oxoethyl)-6-((R)-3-methoxy-pyrrolidin-1-yl)quinoline-4-carboxamide]	6.7	8.5	0.052	0.00028	14000000	0.022	470	84 (≈ 35.7 µg/mL)	–	–	–
N#C[C@@H]1CSCN1C(=O)CNC(=O)c1ccnc2ccc(N3CC(C4CC4)C3)cc12 [Example 145, (R)—N-(2-(4-Cyanothiazolidin-3-yl)-2-oxoethyl)-6-(3-cyclopropylazetidin-1-yl)quinoline-4-carboxamide]	40	10	0.07	0.00013	4500000	0.029	250	5.3 (≈ 2.23 µg/mL)	–	–	–
